Results as given in patent publication US20220380371A1, “MLL1 INHIBITORS AND ANTI-CANCER AGENTS” (NOVARTIS AG, priority 2019, published 2022).
Where two headings read alike, the source gives them in different places.

Legend:
[1] = molecular target: wild type MLL1 four-member complex (MLL1-4C) (Homo sapiens, UniProt Q03164); assay: MLL1 LC-MS Assay; type: biochemical
Outline: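 Compound pre-incubated 20 min with MLL1-4C and SAM, then H3[1-21]-biotin (H3K4me0) substrate added; final 30 nM enzyme, 2.5 μM SAM, 10 μM peptide in Tris pH 8.0 with MgCl2, DTT, Tween 20, BSA. After 120 min at rt, TFA-quenched SAH quantified by LC-MS/MS with d4-SAH; IC50 from dose-response fit.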

[2] = molecular target: wild type MLL1 five-member complex (MLL1-5C) (Homo sapiens, UniProt Q03164); assay: MLL1 Flashplate Assay; type: biochemical; details: read-out: MLL1 flash plate
Procedure: MLL1 Flashplate Assay To assess the compound potency in MLL1 Flashplate assay, compounds were serially diluted 3-fold in DMSO to obtain a total of twelve concentrations. Then the test compounds at each concentration (250 nL of each) were transferred by Mosquito into Corning #3675 384-well plate. Solutions (15 μL) of 4.2 nM wild type MLL1 five-member complex (MLL1-5C) in the assay buffer (20 mM Tris-HCl, pH 8.0, 0.01% Tween 20, 1 mM DTT, 0.01% BSA) were added to the wells. A 10 μL solution of 2.5 μM of the peptide substrate H3K4me0 (histone H3[1-21]-Biotin) and 1.25 μM ^3H-SAM in the reaction buffer was then added to initiate each reaction. The final components in the reaction solution include 2.5 nM MLL1-5C, 0.5 μM ^3H-SAM, and 1 μM H3K4me0 with varying concentration of the compounds. A positive control consisted of 2.5 nM MLL1-5C, 0.5 μM ^3H-SAM, and 1 μM substrate in the absence of the test compound, and a negative control consisted of 0.5 μM ^3H-SAM, and 1 μM substrate only. Each reaction was incubated at rt for 90 min, then stopped by addition of 5 μL per of quench solution (0.5 mM SAM in assay buffer). 25 μL of each reaction solution was transferred to FlashPlate streptavidin 384-well microplate (PerkinElmer). After at least 1 h incubation at rt, the wells were washed three times with 0.1% Tween-20 in dH2O using the BioTek plate washer. The plates were then read in MicroBeta (PerkinElmer). The radioactive readouts were then normalized based on the values coming from the positive and negative controls to give percent enzyme activities. The data were then fit to a dose response equation using the program Helios to get the IC50 values of the test compounds.

H3K4me3 in MV4-11 cells = assay: MV4-11 H3K4me3 Cellular ELISA Assay; type: cell-based; details: Homo sapiens, MV4-11, 48 h
Outline: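 MV4-11 cells were treated for 48 h with 12-point 1:3 compound dilutions (from 10 mM stock), then histones were acid-extracted with 0.5M HCl and neutralized. H3K4me3 and total H3 were measured by HRP chemiluminescent ELISA, and inhibition versus DMSO after H3 normalization was curve-fitted for IC50.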

MV4-11 cells = assay: MV4-11 6-Day Cell Growth CTG (CellTiter-Glo) Assay; type: cell-based; details: Homo sapiens, MV4-11, 144 h, MV4-11 cell growth CellTiter-Glo, 6 days
Outline: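 MV4-11 AML cells (RPMI 1640, 10% FBS) seeded at 300 cells/well and exposed for 6 days at 37 °C to a 12-point, 1:3 compound series starting at 50 μM final. Viable cells read by CellTiter-Glo luminescence; percent inhibition versus DMSO-only wells fitted to dose-response curves for IC50.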

Row | Structure (SMILES) | IC50 ([1]; read-out: LCMS) [nM] | IC50 [2] [nM] | IC50 (H3K4me3 in MV4-11 cells) [nM] | IC50 (MV4-11 cells) [nM] | IC50 ([1]; read-out: MLL1 LCMS) [nM]
1 | Nc1ncnc2c1ncn2Cc1c(Br)c(Cl)c2c(c1N1CC[C@](N)(C(=O)NC3CC3)C1)OCC2 [Example 110] | < 50 | < 60 | < 1900 | < 2000 | 
2 | Nc1ncnc2c1ncn2Cc1c(Br)cc2c(c1N1CCC(N)(C(=O)NC3CC3)C1)OCO2 (stereo not shown) [Example 31] | < 50 | < 60 | < 1900 | < 2000 | 
3 | CN(C)Cc1c(Cl)c(Cl)cc(N2CC[C@](N)(C(=O)NC3CC3)C2)c1Cn1cnc2c(N)ncnc21 [Example 88, (R)-3-amino-1-(2-((6-amino-9H-purin-9-yl)methyl)-4,5-dichloro-3-((dimethylamino)methyl)phenyl)-N-cyclopropylpyrrolidine-3-carboxamide] | < 50 | < 60 | < 1900 | < 2000 | 
4 | CCc1c(C#N)c(Cl)cc(N2CC[C@](N)(C(=O)NC3CC3)C2)c1Cn1cnc2c(N)ncnc21 [Example 101, (R)-3-amino-1-(2-((6-amino-9H-purin-9-yl)methyl)-5-chloro-4-cyano-3-ethylphenyl)-N-cyclopropylpyrrolidine-3-carboxamide] | < 50 | < 60 | < 1900 | 2000 to 3000 | 
5 | Nc1ncnc2c1ncn2Cc1c(Br)c(Cl)cc(Cl)c1N1CC[C@](N)(C(=O)NC2CC2)C1 [Example 143] |  | < 60 | < 1900 | < 2000 | < 50
6 | Nc1ncnc2c1ncn2Cc1c(N2CC[C@](N)(C(=O)NC3CC3)C2)cc(Cl)c(F)c1CN1CCOCC1 [Example 102, (R)-3-amino-1-(2-((6-amino-9H-purin-9-yl)methyl)-5-chloro-4-fluoro-3-(morpholinomethyl)phenyl)-N-cyclopropylpyrrolidine-3-carboxamide] | < 50 | < 60 | < 1900 | < 2000 | 
7 | Nc1ncnc2c1ncn2Cc1c(CN2CCOCC2)c(F)cc(Cl)c1N1CC[C@](N)(C(=O)NC2CC2)C1 [Example 75] | 50 to 100 | > 100 | > 3000 |  | 
8 | CCc1cc(Cl)cc(N2CC[C@](N)(C(=O)N3CCS(=O)(=O)CC3)C2)c1Cn1cnc2c(N)ncnc21 [Example 151] |  | < 60 | < 1900 | < 2000 | > 100
9 | Nc1ncnc2c1ncn2Cc1c(-c2ccc3c(c2)CCO3)cc(Cl)cc1N1CC[C@](N)(C(=O)NC2CC2)C1 [Example 3] | > 100 | > 100 | > 3000 | > 3000 | 
10 | Nc1ncnc2c1ncn2Cc1c(Br)cc(Cl)c(Cl)c1N1CC[C@](N)(C(=O)NC2CC2)C1 [Example 43] | 50 to 100 | < 60 | > 3000 | > 3000 | 
11 | Nc1ncnc2c1ncn2Cc1c(Br)cc2c(c1N1CCC(N)(C(=O)NC3CC3)C1)CCO2 (stereo not shown) [Example 115] | 50 to 100 | < 60 | > 3000 |  | 
12 | CC1(C)Cc2ccc(N3CC[C@](N)(C(=O)NC4CC4)C3)c(Cn3cnc4c(N)ncnc43)c2O1 [Example 114] | > 100 | > 100 | > 3000 |  | 
13 | CN(C)Cc1c(F)cc(Cl)c(N2CC[C@](N)(C(=O)NC3CC3)C2)c1Cn1cnc2c(N)ncnc21 [Example 72, (R)-3-amino-1-(2-((6-amino-9H-purin-9-yl)methyl)-6-chloro-3-((dimethylamino)methyl)-4-fluorophenyl)-N-cyclopropylpyrrolidine-3-carboxamide] | > 100 | > 100 | > 3000 |  | 
14 | Nc1ncnc2c1ncn2Cc1c(N2CC[C@](N)(C(=O)NC3CC3)C2)cc(Cl)c(Cl)c1CN1CCOCC1 [Example 105] | < 50 |  | < 1900 | < 2000 | 

More lines, now with the values ahead:

Row | IC50 ([1]; read-out: LCMS) [nM] | IC50 [2] [nM] | IC50 (H3K4me3 in MV4-11 cells) [nM] | IC50 (MV4-11 cells) [nM] | IC50 ([1]; read-out: MLL1 LCMS) [nM] | Structure (SMILES)
15 | > 100 | > 100 | 1900 to 3000 | > 3000 |  | N#Cc1c(F)ccc(N2CC[C@](N)(C(=O)NC3CC3)C2)c1Cn1cnc2c(N)ncnc21 [Example 4]
16 |  | < 60 | < 1900 | < 2000 | < 50 | N#CC1CCN(C(=O)[C@@]2(N)CCN(c3ccc(F)c(C(F)(F)F)c3Cn3cnc4c(N)ncnc43)C2)C1 (stereo partly shown) [Example 141]
17 | < 50 | < 60 | < 1900 | < 2000 |  | Nc1ncnc2c1ncn2Cc1c(N2CC[C@@](N)(CO)C2)ccc2ccccc12 [Example 106]
18 | 50 to 100 | < 60 | < 1900 | < 2000 |  | Nc1ncnc2c1ncn2Cc1c(-c2cccc(C3CCCCC3)c2)cc(Cl)cc1N1CC[C@](N)(c2nn[nH]n2)C1 [Example 84]
19 | > 100 | < 60 | < 1900 | < 2000 |  | Nc1ncnc2c1ncn2Cc1c(N2CC[C@](N)(C(=O)N3CCc4nocc4C3)C2)ccc(F)c1C(F)(F)F [Example 134]
20 | > 100 | > 100 | < 1900 | < 2000 |  | NC(=O)[C@@]1(N)CCN(c2cc(Cl)cc(-c3cccc(C4CCCCC4)c3)c2Cn2cnc3c(N)ncnc32)C1 [Example 16]
21 | > 100 | 60 to 100 | < 1900 | < 2000 |  | CCn1ncnc1CNC(=O)[C@@]1(N)CCN(c2ccc(F)c(C(F)(F)F)c2Cn2cnc3c(N)ncnc32)C1 [Example 140]
22 | > 100 | > 100 | < 1900 | 2000 to 3000 |  | Nc1ncnc2c1ncn2Cc1cc(F)ccc1N1CC[C@](N)(C(=O)NC2CC2)C1 [Example 14]
23 | < 50 | < 60 | < 1900 | < 2000 |  | Nc1ncnc2c1ncn2Cc1c(N2CC[C@](N)(C(=O)N[C@@H]3C[C@H]3CO)C2)ccc(F)c1C(F)(F)F [Example 127]
24 | 50 to 100 | < 60 | < 1900 | < 2000 |  | N#CC1CN(C(=O)[C@@]2(N)CCN(c3ccc(F)c(C(F)(F)F)c3Cn3cnc4c(N)ncnc43)C2)C1 [Example 132]
25 | < 50 | < 60 | < 1900 | < 2000 |  | CS[C@H]1C[C@H](NC(=O)[C@@]2(N)CCN(c3ccc(F)c(C(F)(F)F)c3Cn3cnc4c(N)ncnc43)C2)C1 [Example 117]
26 | < 50 | > 100 | > 3000 |  |  | Cn1nnnc1[C@@]1(N)CCN(c2cc(Cl)cc(Br)c2Cn2cnc3c(N)ncnc32)C1 [Example 90, (R)-9-(2-(3-amino-3-(1-methyl-1H-tetrazol-5-yl)pyrrolidin-1-yl)-6-bromo-4-chlorobenzyl)-9H-purin-6-amine]
27 |  | < 60 | < 1900 | < 2000 | 50 to 100 | CCOC(=O)[C@@]1(N)CCN(c2cc(Cl)cc(Br)c2Cn2cnc3c(N)ncnc32)C1 [Example 170]
28 | 50 to 100 | 60 to 100 | < 1900 | < 2000 |  | Nc1nccc(CNC(=O)[C@@]2(N)CCN(c3ccc(F)c(C(F)(F)F)c3Cn3cnc4c(N)ncnc43)C2)n1 [Example 133]
29 | > 100 | > 100 | > 3000 |  |  | Nc1ncnc2c1ncn2Cc1c(N2CC[C@](N)(CCc3ccccn3)C2)ccc(F)c1C(F)(F)F [Example 28]
30 | 50 to 100 |  | < 1900 | < 2000 |  | CC1CN(Cc2c(F)ccc(N3CC[C@](N)(C(=O)NC4CC4)C3)c2Cn2cnc3c(N)ncnc32)C1 [Example 64]
31 | > 100 |  | < 1900 | 2000 to 3000 |  | CN(Cc1c(F)ccc(N2CC[C@](N)(C(=O)NC3CC3)C2)c1Cn1cnc2c(N)ncnc21)C1CC1 [Example 48]
32 | 50 to 100 |  | < 1900 | < 2000 |  | CCN(CC)Cc1c(F)ccc(N2CC[C@](N)(C(=O)NC3CC3)C2)c1Cn1cnc2c(N)ncnc21 [Example 67]
33 | 50 to 100 |  | < 1900 | 2000 to 3000 |  | Nc1ncnc2c1ncn2Cc1c(N2CC[C@](N)(C(=O)N3CCn4nccc4C3)C2)ccc(F)c1C(F)(F)F [Example 137]
